These results are taken from PubChem BioAssay AID328 (DTP/NCI, 2004).

This experiment relates to BDF1 mice, P388 leukemia ip, median survival T/C. The experiment can be described thus: NCI In Vivo Anticancer Drug Screen. Data for tumor model P388 Leukemia (intraperitoneal) in B6D2F1 (BDF1) mice. The conditions noted are these: endpoint: median survival time, higher = longer survival. An outline of the steps:
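Vehicle-dosed animals serve as the reference; survival of compound-dosed, tumour-implanted mice is divided by it.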

Setting [1] is: dose: 100.0 mg/kg/injection, schedule: Q04DX003 (ip), vehicle: saline with Tween-80.
Setting [2] is: dose: 200.0 mg/kg/injection, schedule: Q04DX003 (ip), vehicle: saline with Tween-80.
The mark [3] stands for this setting: dose: 50.0 mg/kg/injection, schedule: Q01DX009 (ip), vehicle: saline with Tween-80.
[4] abbreviates: dose: 100.0 mg/kg/injection, schedule: Q01DX009 (ip), vehicle: saline with Tween-80.

“And” between values parts separate entries of the source, which are not always exact repeats. Equal entries are not always repeated. Toxic doses and inconclusive results are not listed.

In the case of `Nc1nc(=S)c2[nH]c(N=Nc3ccc(S(N)(=O)=O)cc3)nc2[nH]1`, the T/C was 166 % of control (dose: 12.5 mg/kg/injection, schedule: Q04DX003 (ip), vehicle: Klucel (hydroxypropylcellulose) (HPC)) and 156 % of control (dose: 25.0 mg/kg/injection, schedule: Q04DX003 (ip), vehicle: Klucel (hydroxypropylcellulose) (HPC)).

For the compound `CC(C)[N+](C)(C)CC(O)COc1cccc2ccccc12` (stereo unspecified), the T/C reads like this: (dose: 12.5 mg/kg/injection, schedule: Q01DX009 (ip), vehicle: saline) 103 % of control and 112 % of control; (dose: 25.0 mg/kg/injection, schedule: Q01DX009 (ip), vehicle: saline) 88 % of control and 109 % of control; (dose: 50.0 mg/kg/injection, schedule: Q01DX009 (ip), vehicle: saline) 105 % of control and 123 % of control.

Consider `Cc1ccc(C)c(CCO)c1`, for which the T/C (dose: 45.0 mg/kg/injection, schedule: Q01DX009 (ip), vehicle: other) was 105 % of control; the T/C (dose: 50.0 mg/kg/injection, schedule: Q01DX009 (ip), vehicle: Klucel (hydroxypropylcellulose) (HPC)) is 108 % of control; the T/C (dose: 65.0 mg/kg/injection, schedule: Q01DX009 (ip), vehicle: other) is 100 % of control; the T/C (dose: 100.0 mg/kg/injection, schedule: Q01DX009 (ip), vehicle: Klucel (hydroxypropylcellulose) (HPC)) was 100 % of control; the T/C (dose: 100.0 mg/kg/injection, schedule: Q01DX009 (ip), vehicle: other) is 100 % of control; the T/C under setting [1] is 109 % of control. Besides, the T/C by setting is: (dose: 150.0 mg/kg/injection, schedule: Q01DX009 (ip), vehicle: other) 105 % of control; (dose: 200.0 mg/kg/injection, schedule: Q01DX009 (ip), vehicle: Klucel (hydroxypropylcellulose) (HPC)) 112 % of control; (dose: 200.0 mg/kg/injection, schedule: Q01DX009 (ip), vehicle: other) 104 % of control and 120 % of control; under setting [2], 109 % of control.

For `CCOc1cc(C=Nc2cc(Cl)c(O)c(Cl)c2)ccc1N(CCCl)CCCl`, the T/C was 154 % of control (dose: 16.0 mg/kg/injection, schedule: Q04DX003 (ip), vehicle: saline with Tween-80); 157 % of control (dose: 16.5 mg/kg/injection, schedule: Q04DX003 (ip), vehicle: saline with Tween-80); 173 % of control (dose: 25.0 mg/kg/injection, schedule: Q04DX003 (ip), vehicle: saline with Tween-80); 207 % of control (dose: 37.5 mg/kg/injection, schedule: Q04DX003 (ip), vehicle: saline with Tween-80).

As to `CN1CCC2(CC1)c1ccccc1-c1ccccc12`, the T/C is, setting by setting: under setting [3], 109 % of control; under setting [4], 100 % of control.

As for `N#Cc1cn(C2OC(CO)C(O)C2O)c2ncnc(N)c12` (stereo unspecified), the T/C is, setting by setting: (dose: 0.37 mg/kg/injection, schedule: Q04DX003 (ip), vehicle: other) 163 % of control; (dose: 0.38 mg/kg/injection, schedule: Q01DX009 (ip), vehicle: other) 105 % of control; (dose: 0.56 mg/kg/injection, schedule: Q04DX003 (ip), vehicle: other) 159 % of control; (dose: 0.83 mg/kg/injection, schedule: Q04DX003 (ip), vehicle: other) 172 % of control; (dose: 0.88 mg/kg/injection, schedule: Q04DX003 (ip), vehicle: other) 154 % of control; (dose: 1.25 mg/kg/injection, schedule: Q04DX003 (ip), vehicle: other) 204 % of control. For the same compound, the T/C is 200 % of control (dose: 1.33 mg/kg/injection, schedule: Q04DX003 (ip), vehicle: other); 150 % of control (dose: 2.0 mg/kg/injection, schedule: Q04DX003 (ip), vehicle: other); 100 % of control (dose: 3.0 mg/kg/injection, schedule: Q04DX003 (ip), vehicle: other).

Consider `CN(C)CCC(O)Cc1ccccc1` (stereo unspecified), for which the T/C reads like this: (dose: 50.0 mg/kg/injection, schedule: Q04DX003 (ip), vehicle: acetone) 100 % of control; (dose: 100.0 mg/kg/injection, schedule: Q04DX003 (ip), vehicle: acetone) 100 % of control; (dose: 200.0 mg/kg/injection, schedule: Q04DX003 (ip), vehicle: acetone) 105 % of control.

As for `CCOP(=O)(NCCCOC)OCC`, the T/C by setting is: (dose: 3.5 mg/kg/injection, schedule: Q01DX009 (ip), vehicle: saline) 105 % of control; (dose: 7.0 mg/kg/injection, schedule: Q01DX009 (ip), vehicle: saline) 120 % of control; (dose: 9.0 mg/kg/injection, schedule: Q04DX003 (ip), vehicle: saline) 122 % of control; (dose: 14.0 mg/kg/injection, schedule: Q01DX009 (ip), vehicle: saline) 115 % of control; (dose: 14.0 mg/kg/injection, schedule: Q04DX003 (ip), vehicle: saline) 104 % of control; (dose: 30.0 mg/kg/injection, schedule: Q01DX009 (ip), vehicle: saline) 88 % of control. Besides, the T/C (dose: 45.0 mg/kg/injection, schedule: Q01DX009 (ip), vehicle: saline) was 88 % of control.

As to `CCc1ccccc1NC(=O)c1cccc(Cl)c1`, the T/C reads like this: under setting [1], 95 % of control; under setting [2], 100 % of control; (dose: 400.0 mg/kg/injection, schedule: Q04DX003 (ip), vehicle: saline with Tween-80) 104 % of control.

For the compound `c1ccc2c(c1)Cc1nc3ccccc3nc1-2`, the T/C is, setting by setting: (dose: 3.12 mg/kg/injection, schedule: Q01DX009 (ip), vehicle: water) 87 % of control; (dose: 6.25 mg/kg/injection, schedule: Q01DX009 (ip), vehicle: water) 101 % of control and 110 % of control; (dose: 12.5 mg/kg/injection, schedule: Q01DX009 (ip), vehicle: water) 87 % of control and 110 % of control; (dose: 25.0 mg/kg/injection, schedule: Q01DX009 (ip), vehicle: water) 93 % of control and 106 % of control and 114 % of control; (dose: 25.0 mg/kg/injection, schedule: Q04DX003 (ip), vehicle: water) 116 % of control; (dose: 50.0 mg/kg/injection, schedule: Q01DX009 (ip), vehicle: water) 89 % of control and 95 % of control. The T/C reads like this: (dose: 50.0 mg/kg/injection, schedule: Q04DX003 (ip), vehicle: water) 102 % of control; (dose: 100.0 mg/kg/injection, schedule: Q01DX009 (ip), vehicle: water) 87 % of control and 110 % of control; (dose: 100.0 mg/kg/injection, schedule: Q04DX003 (ip), vehicle: water) 103 % of control; (dose: 200.0 mg/kg/injection, schedule: Q01DX009 (ip), vehicle: water) 98 % of control; (dose: 200.0 mg/kg/injection, schedule: Q04DX003 (ip), vehicle: water) 104 % of control; (dose: 400.0 mg/kg/injection, schedule: Q01DX009 (ip), vehicle: water) 104 % of control. The T/C (dose: 400.0 mg/kg/injection, schedule: Q04DX003 (ip), vehicle: water) was 113 % of control.

For `CNc1ncnc2nc(OC)[nH]c12`, the T/C (dose: 0.78 mg/kg/injection, schedule: Q01DX009 (ip), vehicle: saline with Tween-80) is 95 % of control; the T/C (dose: 1.56 mg/kg/injection, schedule: Q01DX009 (ip), vehicle: saline with Tween-80) is 100 % of control; the T/C (dose: 3.13 mg/kg/injection, schedule: Q01DX009 (ip), vehicle: saline with Tween-80) is 98 % of control; the T/C (dose: 6.25 mg/kg/injection, schedule: Q01DX009 (ip), vehicle: saline with Tween-80) is 101 % of control.

For the compound `Nc1[nH]c(=O)ncc1[N+](=O)[O-]`, the T/C under setting [3] was 102 % of control and the T/C under setting [4] is 118 % of control.

On to `C/C(=N\N1CCCCCC1)c1ccccc1`, for which the T/C reads like this: (dose: 50.0 mg/kg/injection, schedule: Q04DX003 (sc), vehicle: olive oil, sesame oil, peanut oil) 95 % of control; (dose: 100.0 mg/kg/injection, schedule: Q04DX003 (sc), vehicle: olive oil, sesame oil, peanut oil) 95 % of control; (dose: 200.0 mg/kg/injection, schedule: Q04DX003 (sc), vehicle: olive oil, sesame oil, peanut oil) 91 % of control.

Turning to `CCOC(=O)c1c(N)c2cnn(C)c2[nH]c1=O`, the T/C reads like this: (dose: 100.0 mg/kg/injection, schedule: Q04DX002 (ip), vehicle: saline with Tween-80) 100 % of control; (dose: 200.0 mg/kg/injection, schedule: Q04DX002 (ip), vehicle: saline with Tween-80) 90 % of control; (dose: 400.0 mg/kg/injection, schedule: Q04DX002 (ip), vehicle: saline with Tween-80) 90 % of control.

Take `O=C1CN(Cc2ccccc2)CC(=O)N2CCCN12`: the T/C is, setting by setting: (dose: 50.0 mg/kg/injection, schedule: Q01DX005 (ip), vehicle: saline with Tween-80) 101 % of control; (dose: 100.0 mg/kg/injection, schedule: Q01DX005 (ip), vehicle: saline with Tween-80) 90 % of control; (dose: 200.0 mg/kg/injection, schedule: Q01DX005 (ip), vehicle: saline with Tween-80) 92 % of control.
